Data on 10 molecules can be found in US20260041753A1, “RESPIRATORY SYNCYTIAL VIRUS SURFACE GL[…], CONJUGATES, AND USES THEREOF” (Dana-Farber Cancer Institute, Inc., priority 2023, published 2026).

Series [1] has as its system live human Respiratory Syncytial Virus with Green Fluorescent Protein (RSV-GFP1). Type of series: cell-based. To be noted: for improvement in anti-viral activity compared to the singly stapled RSV HR2 peptide of SEQ ID NO: 4: versus single staple alone with an additional 6 HR2 amino acids at the C-terminus; for antiviral activity in the GFP-RSV live virus assay (staple and PEG scanning): dose of 2 μM, RSV-GFP in A549 cells after 48 hours (FIG. 15). As for the experimental part: Antiviral Efficacy Assays: The efficiency of the peptide-cholesterol conjugates of the invention in preventing and treating infection of live human Respiratory Syncytial Virus with Green Fluorescent Protein (RSV-GFP1) are evaluated in monolayer cell cultures. A549 cells plated in 384-well format are treated for 30 min with a serial dilution of stapled peptides (e.g. 1-5 […] or a fixed dose, e.g. […]), performed in quadruplicate, followed by addition of GFP-RSV live virus assay (0.75-1.25 μL of virus per well) and incubation for 48-72 hours. Infected cells are then washed with PBS. Hoechst 33342 (cell permeable nuclear dye) and DRAQ7 (cell impermeable nuclear dye) are added and the plate imaged on a Molecular Devices ImageXpress Micro Confocal Laser at 4× magnification. GFP (+) cells are counted and total GFP(+) cells or percent GFP(+) cells are plotted using Prism software (Graphpad). Cytotoxicity is determined by the ratio of DRAQ7 (+) Hoechst 33342 (+) to DRAQ7 (−) Hoechst 33342 (+) cells.

The nature of series [2]: Solubility of stapled lipopeptides in buffer (FIG. 18). Type of series: physicochemical. The note with it: 15 mg/mL in 15% DMSO, PBS pH 7.4. As for the experimental part:
Buffer conditions are 15 mg/mL in 15% DMSO, PBS pH 7.4.

A short description of series [3]: pI of stapled lipopeptides. The series is classed as physicochemical.
Where [4] appears, read: GFP-RSV live virus, A549 cells, read-out at 48 hours (FIGS. 13, 16, 17), read-out: IC50, antiviral activity in live RSV virus assay.

As a reminder, the IC50 is the concentration at which inhibition is half-maximal.

Read-outs that look alike come from different tables or passages of the source. Where a SMILES comes first, the peptide text is derived from it. Bridges are numbered along the chain shown (N, C = ends). Primed or numbered codes have the meaning given here. Where no end group is shown, it is not given here. Side-chain parts run from the residue outwards. [ ]: non-standard residue; d: D form. The star is where a group is joined. ξ: configuration not given here. thiocholesterol = thiocholesterol moiety attached via the PEG4 linker to the lysine epsilon side chain, CC(C)CCC[C@@H](C)[C@H]1CC[C@H]2[C@@H]3CC=C4C[C@@H](S*)CC[C@]4(C)[C@H]3CC[C@]12C; Acetyl(2-S-cholesteryl) = CC(C)CCC[C@@H](C)[C@H]1CC[C@H]2[C@@H]3CC=C4C[C@@H](SCC(=O)*)CC[C@]4(C)[C@H]3CC[C@]12C; Acetyl(2-S-3ξ-cholesteryl) = CC(C)CCC[C@@H](C)[C@H]1CC[C@H]2[C@@H]3CC=C4CC(SCC(=O)*)CC[C@]4(C)[C@H]3CC[C@]12C; PEG20 = NCCOCCOCCOCCOCCOCCOCCOCCOCCOCCOCCOCCOCCOCCOCCOCCOCCOCCOCCOCCOCCC(=O)O; PEG16 = NCCOCCOCCOCCOCCOCCOCCOCCOCCOCCOCCOCCOCCOCCOCCOCCOCCC(=O)O; PEG4′ = 4x polyethylene glycol linker; R8 = C=CCCCCCC[C@@](C)(N)C(=O)O; PEG4 = NCCOCCOCCOCCOCCC(=O)O; S5 = C=CCCC[C@](C)(N)C(=O)O

In the case of “PEG20-thiochol SEQ IQ NO: 5: SEQ ID NO:51 with PEG(n)-thiocholesterol linked via a C-terminal lysine, n is 20 (FDXSISQVNXKINQSLAFIRKSDELLHNVK; not fully specified; C-terminal Lys-PEG20-thiocholesterol; SITE 3 (R)-alpha-(7'-octenyl)alanine; SITE 10 (S)-alpha-(4'-pentenyl)alanine; SITE 30 Residue attached to 20x polyethylene glycol thiocholesterol)”, the IC50 in series [1] (setting [4]) is 0.06 µM. Besides, the “improvement in anti-viral activity compared to the singly stapled RSV HR2 peptide of SEQ ID NO: 4” value in series [1] is “greater than two orders of magnitude”.
As to “FDASISQVN8KINQSLXFIRKSDELLHNV* (FDASISQVNXKINQSLXFIRKSDELLHNVK; not fully specified; Lys(epsilon-(PEG)4-thiocholesterol); non-natural residues 8, X; SITE 10 (R)-alpha-(7'-octenyl)alanine; SITE 17 (S)-alpha-(4'-pentenyl)alanine; SITE 30 Residue side chain modified at the epsilon carbon with 4x polyethylene glycol attached to thiocholesterol) [SEQ ID NO: 14]”, in series [1], the “antiviral activity in the GFP-RSV live virus assay (staple and PEG scanning)” value (shortened to “antiviral activity”) is “potent activity”.
For “PEG16-thiochol SEQ IQ NO: 5: SEQ ID NO:51 with PEG(n)-thiocholesterol linked via a C-terminal lysine, n is 16 (FDXSISQVNXKINQSLAFIRKSDELLHNVK; not fully specified; C-terminal Lys-PEG16-thiocholesterol; SITE 3 (R)-alpha-(7'-octenyl)alanine; SITE 10 (S)-alpha-(4'-pentenyl)alanine; SITE 30 Residue attached to 16x polyethylene glycol thiocholesterol)”, the IC50 in series [1] (setting [4]) amounted to 0.049 µM. Besides, the “improvement in anti-viral activity compared to the singly stapled RSV HR2 peptide of SEQ ID NO: 4” value in series [1] is recorded as “greater than two orders of magnitude”.
For the molecule “SDEFDASISQVNEKINQSL8FIRKSDXLLHNV* (SDEFDASISQVNEKINQSL[R8]FIRKSD[S5]LLHNV; staple 20-27; also: C-terminal linker-lipid (*), exact composition not fixed) [SEQ ID NO: 281]”, the solubility result is recorded as “fully soluble” in series [2] and “complete solubility” in series [2] (listed as SEQ ID NO:21 with three native N-terminal residues “SDE”). The pI in series [3] is listed as 4.7.
For the molecule “FDASISQVNEKINQSLAFI8KSDELLXNV* (FDASISQVNEKINQSLAFI[R8]KSDELL[S5]NVK([PEG4′-thiocholesterol]); staple 20-27 (inferred)) [SEQ ID NO: 24, * =Lys(epsilon-(PEG)4-thiocholesterol)]”, in series [1], the “antiviral activity” value was “potent activity”.
“8DASISQXNEKINQSLAFIRKSDELLHNV* ([R8]DASISQ[S5]NEKINQSLAFIRKSDELLHNVK([PEG4′-thiocholesterol]); staple 1-8) [SEQ ID NO: 6, * =Lys(epsilon-(PEG)4-thiocholesterol)]”: in series [1], the “antiviral activity” value was “potent activity”.
Turning to `CC[C@H](C)[C@H](NC(=O)[C@H](Cc1ccccc1)NC(=O)[C@H](C)NC(=O)[C@H](CC(C)C)NC(=O)[C@H](CO)NC(=O)[C@H](CCC(N)=O)NC(=O)[C@H](CC(N)=O)NC(=O)[C@@H](NC(=O)[C@H](CCCCN)NC(=O)[C@]1(C)CCCC=CCCCCCC[C@@](C)(NC(=O)[C@H](CC(=O)O)NC(=O)[C@H](Cc2ccccc2)NC(C)=O)C(=O)N[C@@H](CO)C(=O)N[C@@H]([C@@H](C)CC)C(=O)N[C@@H](CO)C(=O)N[C@@H](CCC(N)=O)C(=O)N[C@@H](C(C)C)C(=O)N[C@@H](CC(N)=O)C(=O)N1)[C@@H](C)CC)C(=O)N[C@@H](CCCNC(=N)N)C(=O)N[C@@H](CCCCN)C(=O)N[C@@H](CO)C(=O)N[C@@H](CC(=O)O)C(=O)N[C@@H](CCC(=O)O)C(=O)N[C@@H](CC(C)C)C(=O)N[C@@H](CC(C)C)C(=O)N[C@@H](Cc1c[nH]cn1)C(=O)N[C@@H](CC(N)=O)C(=O)N[C@H](C(=O)N[C@@H](CCCCNC(=O)CCOCCOCCOCCOCCNC(=O)CS[C@H]1CC[C@@]2(C)C(=CC[C@H]3[C@@H]4CC[C@H]([C@H](C)CCCC(C)C)[C@@]4(C)CC[C@@H]32)C1)C(N)=O)C(C)C` [SEQ ID NO: 5, FD8SISQVNXKINQSLAFIRKSDELLHNV*] (Ac-FD[R8]SISQVN[S5]KINQSLAFIRKSDELLHNVK([PEG4-Acetyl(2-S-cholesteryl)])-NH2; staple 3-10), the IC50 in series [1] (setting [4]) was found to be 0.13 µM; in series [1] (live RSV virus (FIG. 13), read-out: IC50, infectivity assay using live RSV virus), 0.13 µM. Also, the “antiviral activity” value in series [1] is reported as “potent activity”. Also, the “improvement in anti-viral activity compared to the singly stapled RSV HR2 peptide of SEQ ID NO: 4” value in series [1] is recorded as “an order of magnitude”.
Take `CC[C@H](C)[C@H](NC(=O)[C@H](CO)NC(=O)[C@H](C)NC(=O)[C@H](CC(=O)O)NC(=O)[C@H](Cc1ccccc1)NC(C)=O)C(=O)N[C@@H](CO)C(=O)N[C@@H](CCC(N)=O)C(=O)N[C@H](C(=O)N[C@@H](CC(N)=O)C(=O)N[C@@H](CCC(=O)O)C(=O)N[C@@H](CCCCN)C(=O)N[C@H](C(=O)N[C@@H](CC(N)=O)C(=O)N[C@@H](CCC(N)=O)C(=O)N[C@@H](CO)C(=O)N[C@@H](CC(C)C)C(=O)N[C@]1(C)CCCCCCC=CCCC[C@@](C)(C(=O)N[C@@H](CC(C)C)C(=O)N[C@@H](CC(C)C)C(=O)N[C@@H](Cc2c[nH]cn2)C(=O)N[C@@H](CC(N)=O)C(=O)N[C@H](C(=O)N[C@@H](CCCCNC(=O)CCOCCOCCOCCOCCOCCOCCOCCOCCOCCOCCOCCOCCOCCOCCOCCOCCOCCOCCOCCOCCNC(=O)CS[C@H]2CC[C@@]3(C)C(=CC[C@H]4[C@@H]5CC[C@H]([C@H](C)CCCC(C)C)[C@@]5(C)CC[C@@H]43)C2)C(N)=O)C(C)C)NC(=O)[C@H](CC(=O)O)NC(=O)[C@H](CO)NC(=O)[C@H](CCCCN)NC(=O)[C@H](CCCNC(=N)N)NC(=O)[C@H]([C@@H](C)CC)NC(=O)[C@H](Cc2ccccc2)NC1=O)[C@@H](C)CC)C(C)C` [PEG20-thichol SEQ ID NO: 21] (Ac-FDASISQVNEKINQSL[R8]FIRKSD[S5]LLHNVK([PEG20-Acetyl(2-S-cholesteryl)])-NH2; staple 17-24): the IC50 in series [1] (setting [4]) was 0.0082 µM.
For the molecule `CC[C@H](C)[C@H](NC(=O)[C@H](CO)NC(=O)[C@H](C)NC(=O)[C@H](CC(=O)O)NC(=O)[C@H](Cc1ccccc1)NC(C)=O)C(=O)N[C@@H](CO)C(=O)N[C@@H](CCC(N)=O)C(=O)N[C@H](C(=O)N[C@@H](CC(N)=O)C(=O)N[C@@H](CCC(=O)O)C(=O)N[C@@H](CCCCN)C(=O)N[C@H](C(=O)N[C@@H](CC(N)=O)C(=O)N[C@@H](CCC(N)=O)C(=O)N[C@@H](CO)C(=O)N[C@@H](CC(C)C)C(=O)N[C@]1(C)CCCCCCC=CCCC[C@@](C)(C(=O)N[C@@H](CC(C)C)C(=O)N[C@@H](CC(C)C)C(=O)N[C@@H](Cc2c[nH]cn2)C(=O)N[C@@H](CC(N)=O)C(=O)N[C@H](C(=O)N[C@@H](CCCCNC(=O)CCOCCOCCOCCOCCNC(=O)CSC2CC[C@@]3(C)C(=CC[C@H]4[C@@H]5CC[C@H]([C@H](C)CCCC(C)C)[C@@]5(C)CC[C@@H]43)C2)C(N)=O)C(C)C)NC(=O)[C@H](CC(=O)O)NC(=O)[C@H](CO)NC(=O)[C@H](CCCCN)NC(=O)[C@H](CCCNC(=N)N)NC(=O)[C@H]([C@@H](C)CC)NC(=O)[C@H](Cc2ccccc2)NC1=O)[C@@H](C)CC)C(C)C` (stereo partly drawn) [SEQ ID NO: 21, FDASISQVNEKINQSL8FIRKSDXLLHNV*] (Ac-FDASISQVNEKINQSL[R8]FIRKSD[S5]LLHNVK([PEG4-Acetyl(2-S-3ξ-cholesteryl)])-NH2; staple 17-24), the solubility result in series [2] is listed as “visible pellet”; in series [2] (listed as SEQ ID NO:21) it was “Poor solubility”.
For the molecule `CC[C@H](C)[C@H](NC(=O)[C@H](CO)NC(=O)[C@H](C)NC(=O)[C@H](CC(=O)O)NC(=O)[C@H](Cc1ccccc1)NC(C)=O)C(=O)N[C@@H](CO)C(=O)N[C@@H](CCC(N)=O)C(=O)N[C@H](C(=O)N[C@@H](CC(N)=O)C(=O)N[C@@H](CCC(=O)O)C(=O)N[C@@H](CCCCN)C(=O)N[C@H](C(=O)N[C@@H](CC(N)=O)C(=O)N[C@@H](CCC(N)=O)C(=O)N[C@@H](CO)C(=O)N[C@@H](CC(C)C)C(=O)N[C@]1(C)CCCCCCC=CCCC[C@@](C)(C(=O)N[C@@H](CC(C)C)C(=O)N[C@@H](CC(C)C)C(=O)N[C@@H](Cc2c[nH]cn2)C(=O)N[C@@H](CC(N)=O)C(=O)N[C@H](C(=O)N[C@@H](CCCCNC(=O)CCOCCOCCOCCOCCOCCOCCOCCOCCOCCOCCOCCOCCOCCOCCOCCOCCNC(=O)CS[C@H]2CC[C@@]3(C)C(=CC[C@H]4[C@@H]5CC[C@H]([C@H](C)CCCC(C)C)[C@@]5(C)CC[C@@H]43)C2)C(N)=O)C(C)C)NC(=O)[C@H](CC(=O)O)NC(=O)[C@H](CO)NC(=O)[C@H](CCCCN)NC(=O)[C@H](CCCNC(=N)N)NC(=O)[C@H]([C@@H](C)CC)NC(=O)[C@H](Cc2ccccc2)NC1=O)[C@@H](C)CC)C(C)C` [PEG16-thiochol SEQ ID NO: 21] (Ac-FDASISQVNEKINQSL[R8]FIRKSD[S5]LLHNVK([PEG16-Acetyl(2-S-cholesteryl)])-NH2; staple 17-24), in series [1] (setting [4]), the IC50 came to 0.018 µM.
